Laboratory results as given in patent US6451800B1, “Phenylpiperazine derivatives as integrin αvβ3 antagonists” (Meiji Seika Kaisha, Ltd., priority 1998, dated 2002).

Experiments:
GP IIb/IIIa = GP IIb/IIIa (Homo sapiens, UniProt P05106+P08514); experiment: GP IIb/IIIa antagonistic activity (method of Pharmacological Test 2 in WO 94/21599); format: binding
Description: (§1) GP IIb/IIIa Antagonistic Activity and Human Platelet Aggregation Inhibitory Activity
GP IIb/IIIa antagonistic activity was measured for the compounds according to the present invention. The measurement of the GP IIb/IIIa antagonistic activity was carried out according to the method described in Pharmacological Test 2 in WO 94/21599.

[1] = tested on: human platelet aggregation; experiment: Human platelet aggregation inhibitory activity (method of Pharmacological Test 1 in WO 94/21599); format: cell-based
Description: as §1
Human platelet aggregation inhibitory activity was measured for the compounds according to the present invention. The measurement of the human platelet aggregation activity was carried out according to the method described in Pharmacological Test 1 in WO 94/21599.

mice = experiment: Acute toxicity test, intravenous administration to mice; format: in vivo; conditions: 12.5 mg/kg
Excerpt: The compound of Example 3 was intravenously administered to mice.

Oral absorption in rats = format: in vivo; conditions: data not shown
Excerpt: Therefore, any of the compounds, wherein R^9 represents an alkyl group or a hydrogen atom, can be used in the treatment of the above diseases.

[2] = target: T1, integrin αvβ3 (vitronectin receptor purified from the human placenta) (Homo sapiens, UniProt P05106+P06756); experiment: αvβ3 binding assay (vitronectin-vitronectin receptor binding assay); conditions: vitronectin receptor from human placenta; read-out: IC50, inhibition of binding between vitronectin and vitronectin receptor (αvβ3 binding inhibitory activity)
T1 construct: a vitronectin receptor (protein content: 118 μg/ml) purified from the human placenta; from tissue; host or cells: human placenta
Description: Integrin αvβ3 antagonistic activity was measured for the compounds according to the present invention in a vitronectin-vitronectin receptor binding assay system in accordance with the method of Kouns et al. (W. C. Kouns, D. Kirchhofer, P. Hadvary, A. Edenhofer, T. Weller, G. Pfenninger, H. R. Baumgartner, L. K. Jennings and B. Steiner, Blood, 8, 2539-2547 (1992)).
Specifically, a vitronectin receptor (protein content: 118 μg/ml) purified from the human placenta in accordance with the method of Pytela et al. (R. Pytela, M. D. Pierschbacher, S. Argraves, S. Suzuki, and E. Ruoslahti, Method in Enzymology, 144, 475-489 (1987)) was diluted 50 times with TBS (20 mM Tris-HCl, 150 mM NaCl, 1 mM CaCl2, 1 mM MgCl2, pH 7.4), and distributed and coated on wells (50 μl/well) of a plate (Maxisorp, Nunc, 96 well Immuno Plate). The plate was then allowed to stand at 4° C. for 1 day, washed twice with TBS (200 μl/well), and then subjected to blocking with TBS (150 μl/well) containing 1% bovine serum albumin (SIGMA) at 4° C. overnight. After washing twice with TBS (200 μl/well), 50 μl of vitronectin (CALBIOCHEM) adjusted to 0.2 μg/ml by the addition of TBS (TBS-Tween) containing 0.01% Tween-20 was mixed with 50 μl of each test compound adjusted to each concentration in wells, and a reaction was allowed to proceed at room temperature for 4 hr. After the completion of the reaction, the wells were washed five times with TBS-Tween. A solution prepared by diluting anti-vitronectin rabbit antiserum (CHEMICON) 500 times with TBS-Tween was added as a primary antibody in an amount of 50 μl per well, and a reaction was allowed to proceed at room temperature for 1.5 hr. After washing five times with 200 μl/well of TBS-Tween, a peroxidase (POD)-labeled anti-rabbit IgG antibody solution (CAPPEL) diluted 500 times with TBS-Tween was added as a secondary antibody in an amount of 50 μl/well, and a reaction was allowed to proceed at room temperature for 1.5 hr. After washing five times with TBS-Tween (200 μl /well), ABTS (2,2′-azino-bis(3-ethylbenzthiazoline-6-sulfonic acid), SIGMA) was adjusted to 1 mg/ml by the addition of a ten-fold diluted POD-buffer (ZYMED), and added in an amount of 50 μl/well, and a reaction was allowed to proceed for 5 to 10 min. A 0.1 M citric acid buffer (pH 4.3) containing 0.05% NaN3 was added in an amount of 50 μl/well to stop the reaction, followed by the measurement of the absorbance at 415 nm with a microplate reader (MTP 32, Corona Electric) (reference: 675 nm). The total binding was defined as the absorbance after a reaction using 50 μl of TBS-Tween instead of the test compound, and the non-specific binding (100% inhibition) was defined as the absorbance after a reaction using 50 μl of TBS-Tween containing 2×10^−3 M RGDS. The inhibition was calculated by the following equation: [formula]
IC50 was determined from a primary regression line of the logarithm of each concentration of the test compound and the logarithm of (100−inhibition)/inhibition.

[3] = tested on: human vascular smooth muscle cells; experiment: Inhibition of adhesion of human vascular smooth muscle cells to immobilized human vitronectin; format: cell-based; conditions: read-out: IC50, inhibitory activity against the adhesion of human vascular smooth muscle cells to vitronectin
Description: Inhibitory Activity Against Adhesion of Human Vascular Smooth Muscle Cells to Vitronectin
The adhesion of human vascular smooth muscle cells to immobilized human vitronectin was measured in accordance with the method of Liaw et al. (Liaw L, Almeida M, Hart C E, Schwartz S M, and Giachelli C M, Circulation Research, 74 (2), 214-224 (1994)).
A Dulbecco's phosphate buffer (Dulbecco's PBS(−), Nissui Pharmaceutical Co., Ltd.) solution of human plasma-derived vitronectin (CALBIOCHEM) adjusted to a concentration of 4 μg/ml was first added to wells (50 μl/well) of a microplate (Maxisorp, Nunc), and a reaction for immobilization was allowed to proceed at 4° C. overnight. […]
Next, 50 μl of a Dulbecco's modified Eagle's basal medium containing 10 mg/ml of bovine serum albumin with a medicament added thereto was added to the wells of the human vitronectin-coated assay microplate, followed by pre-cultivation under 5% carbon dioxide at 37° C. for 10 min. […] The absorbance of the microplate thus obtained was measured at 595 nm. […] The inhibition was calculated by the following equation. IC50 was determined from a primary regression line of the logarithm of each concentration of the test compound and the logarithm of (100−inhibition)/inhibition. […]

T1 sequence (P06756 31-889 limits assumed): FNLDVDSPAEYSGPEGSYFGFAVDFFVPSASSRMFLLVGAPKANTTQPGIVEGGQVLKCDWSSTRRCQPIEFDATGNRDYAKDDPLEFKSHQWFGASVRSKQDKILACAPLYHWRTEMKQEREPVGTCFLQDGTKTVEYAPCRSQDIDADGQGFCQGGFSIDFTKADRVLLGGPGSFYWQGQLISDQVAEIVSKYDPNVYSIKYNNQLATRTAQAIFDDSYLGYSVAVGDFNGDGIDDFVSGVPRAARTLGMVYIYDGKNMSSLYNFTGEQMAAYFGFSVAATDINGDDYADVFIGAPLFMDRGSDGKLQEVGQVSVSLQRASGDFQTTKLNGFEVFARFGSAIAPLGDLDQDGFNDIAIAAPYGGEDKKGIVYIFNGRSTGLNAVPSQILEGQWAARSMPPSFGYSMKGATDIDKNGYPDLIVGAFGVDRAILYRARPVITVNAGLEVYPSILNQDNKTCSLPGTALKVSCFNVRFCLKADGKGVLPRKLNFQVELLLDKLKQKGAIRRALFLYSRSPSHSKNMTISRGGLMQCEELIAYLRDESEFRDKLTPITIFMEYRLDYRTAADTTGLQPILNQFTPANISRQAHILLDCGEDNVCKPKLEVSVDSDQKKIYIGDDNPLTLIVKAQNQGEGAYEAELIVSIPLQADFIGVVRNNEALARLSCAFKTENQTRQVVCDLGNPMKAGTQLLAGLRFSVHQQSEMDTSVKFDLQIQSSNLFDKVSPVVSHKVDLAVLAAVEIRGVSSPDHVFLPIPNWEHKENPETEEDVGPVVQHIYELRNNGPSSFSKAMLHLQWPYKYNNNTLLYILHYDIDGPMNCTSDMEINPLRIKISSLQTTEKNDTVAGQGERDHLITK
T1 sequence (P06756 891-1048 partner limits assumed): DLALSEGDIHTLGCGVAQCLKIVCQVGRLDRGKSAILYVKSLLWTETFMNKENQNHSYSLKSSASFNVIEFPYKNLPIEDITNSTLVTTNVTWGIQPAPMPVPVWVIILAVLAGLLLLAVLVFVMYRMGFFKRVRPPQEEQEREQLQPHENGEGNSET
T1 sequence (P05106 27-788): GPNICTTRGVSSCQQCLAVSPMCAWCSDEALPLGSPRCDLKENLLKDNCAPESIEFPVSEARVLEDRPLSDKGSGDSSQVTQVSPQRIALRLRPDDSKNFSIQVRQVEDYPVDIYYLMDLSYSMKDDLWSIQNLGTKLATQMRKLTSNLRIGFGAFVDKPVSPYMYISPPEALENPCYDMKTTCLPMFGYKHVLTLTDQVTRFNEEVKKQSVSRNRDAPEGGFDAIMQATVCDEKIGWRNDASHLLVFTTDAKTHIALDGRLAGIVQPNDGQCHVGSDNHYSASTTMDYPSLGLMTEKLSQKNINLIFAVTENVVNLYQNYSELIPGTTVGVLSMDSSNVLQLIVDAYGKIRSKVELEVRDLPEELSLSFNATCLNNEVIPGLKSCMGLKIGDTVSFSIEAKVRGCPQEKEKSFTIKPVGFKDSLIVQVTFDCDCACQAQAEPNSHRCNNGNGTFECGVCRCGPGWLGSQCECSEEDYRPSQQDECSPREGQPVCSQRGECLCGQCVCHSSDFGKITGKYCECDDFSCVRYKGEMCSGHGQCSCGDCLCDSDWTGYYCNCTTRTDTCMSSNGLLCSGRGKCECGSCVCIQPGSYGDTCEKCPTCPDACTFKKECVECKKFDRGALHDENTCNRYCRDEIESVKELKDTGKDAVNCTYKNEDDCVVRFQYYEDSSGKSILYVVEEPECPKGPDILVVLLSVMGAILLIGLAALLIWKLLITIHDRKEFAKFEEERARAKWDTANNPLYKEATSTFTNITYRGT
Sequence of GP IIb/IIIa (P08514 32-887 limits assumed): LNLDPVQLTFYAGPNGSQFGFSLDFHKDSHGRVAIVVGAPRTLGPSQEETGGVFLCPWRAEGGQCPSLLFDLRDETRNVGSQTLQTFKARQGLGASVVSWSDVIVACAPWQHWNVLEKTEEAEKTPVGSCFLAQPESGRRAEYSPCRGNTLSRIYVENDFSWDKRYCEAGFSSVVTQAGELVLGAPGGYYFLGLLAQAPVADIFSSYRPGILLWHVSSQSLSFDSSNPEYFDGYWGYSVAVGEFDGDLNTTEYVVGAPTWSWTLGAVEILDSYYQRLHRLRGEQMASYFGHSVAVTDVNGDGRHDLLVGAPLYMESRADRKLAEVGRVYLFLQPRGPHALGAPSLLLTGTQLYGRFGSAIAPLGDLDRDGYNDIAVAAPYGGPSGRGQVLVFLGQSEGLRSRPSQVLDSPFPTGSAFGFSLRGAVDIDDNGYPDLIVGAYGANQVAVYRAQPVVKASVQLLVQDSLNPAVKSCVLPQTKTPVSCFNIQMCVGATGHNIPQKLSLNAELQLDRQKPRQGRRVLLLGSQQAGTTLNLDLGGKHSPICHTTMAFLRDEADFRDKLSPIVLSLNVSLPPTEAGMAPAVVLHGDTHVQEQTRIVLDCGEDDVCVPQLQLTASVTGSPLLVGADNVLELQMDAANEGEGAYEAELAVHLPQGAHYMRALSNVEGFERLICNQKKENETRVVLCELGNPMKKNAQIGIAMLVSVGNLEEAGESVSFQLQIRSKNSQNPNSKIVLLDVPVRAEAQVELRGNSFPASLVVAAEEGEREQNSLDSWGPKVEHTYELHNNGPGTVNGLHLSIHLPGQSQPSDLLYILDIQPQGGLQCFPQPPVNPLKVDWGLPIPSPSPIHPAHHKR
Sequence of GP IIb/IIIa (P08514 891-1039 partner limits assumed): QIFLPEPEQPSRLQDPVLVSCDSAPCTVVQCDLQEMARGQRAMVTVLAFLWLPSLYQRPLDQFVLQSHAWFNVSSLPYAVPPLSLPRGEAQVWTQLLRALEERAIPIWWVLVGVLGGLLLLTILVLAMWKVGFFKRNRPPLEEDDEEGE
Sequence of GP IIb/IIIa (P05106 27-788): as the sequence (P05106 27-788) above

IC50 [2] | IC50 [3] | Compound | GP IIb/IIIa antagonistic activity (in words) (GP IIb/IIIa) | human platelet aggregation inhibition (in words) [1] | IC50 ([1]; read-out: IC50, human platelet aggregation inhibition) | acute toxicity, symptoms (mice) | oral absorption (Oral absorption in rats)
 |  | O=C(NC[C@H](NS(=O)(=O)c1ccccc1)C(=O)O)c1ccc(N2CCN(C3=NCCCN3)CC2)cc1 [Example 3, (2S)-Benzenesulfonylamino-3-[4-{4-(1,4,5,6-tetrahydropyrimidin-2-yl)-piperazin-1-yl}-benzoylamino]-propionic acid] | extremely high GP IIb/IIIa antagonistic activity | very strongly inhibited human platelet aggregation | 34 nM | no special symptom was developed | excellent oral absorption
31 nM | 750 nM | O=C(N[C@@H](CNC(=O)c1ccc(N2CCN(C3=NCCCN3)CC2)cc1)C(=O)O)OCc1ccccc1 [Example 30, (2S)-Benzyloxycarbonylamino-3-[4-{4-(1,4,5,6-tetrahydropyrimidin-2-yl)-piperazin-1-yl}-benzoylamino]-propionic Acid] |  |  |  |  | 
